The record followed here is US12331121B2, “Efflux pump-cancer antigen multi-specific antibodies and compositions, reagents, kits and methods related thereto” (William Robert Arathoon Living Trust Dated August 29, 2016, priority 2019, dated 2025).

Assay [1] concerns human red blood cells (RBCs). As to the kind of experiment: Binding to human erythrocytes. Particulars: FIG. 22A; in contrast to anti-CD47 5F9.
Assay [2] relates to multidrug resistant N6ADR cells. As to the kind of experiment: N6ADR tumors in mice (Example 5). It is filed as in vivo. The protocol:
Tumors formed by injecting multidrug resistant N6ADR cells in mice were treated by administering the anti-MDR1 antibody 15D3, with or without paclitaxel or administering KbisP1.1 with or without paclitaxel.

Another assay has as its system naïve 293T cells. As to the kind of experiment: Enhanced cell killing (chemosensitization) of naïve 293T cells with chemotherapeutic titration. It is filed as cell-based, human. The protocol: HEK 293T, MCF-7, N6ADR and SKNF7 cell lines expressing Pgp were obtained from the American Type Culture Collection. N6/ADR cells is also referred to as NALM6/ADR cells. All cell lines and lines derived from them were maintained in RPMI 1640 or DMEM supplemented with up to 10% fetal bovine serum (Sigma), nonessential amino acids, and 2 mmol/L L-glutamine at 37° C. and 5% CO2 in a humidified incubator (unless otherwise indicated). Cells were used as supplied or were modified to overexpress (Ox) Pgp or were subject to having Pgp expression knocked down (KD) with lentiviral-mediated short hairpin RNA or knock out (KO) of the functional CD47 gene by CRISPR/Cas-mediated knock out technology essentially as described (Cong, L. et al. (2013) Science 339, 819-823). For vincristine and paclitaxel IC50 determination, cells were plated in normal growth medium and allowed to adhere overnight. Paclitaxel or vincristine (Sigma) were added in a dilution series and any modulators were added within ranges of 0 to 500 μM/L. Cell viability was measured 72 h later using the Celltiter-Glo Luminescent Cell Viability Assay (Promega).
FIG. 8 provides comparisons of binding and enhanced cell killing by different bispecific antibodies (with various humanized or chimerized heavy or light chain combinations). […] Columns 5-8 (“Binding (293)”, “Binding (293 KO CD47)”, Binding (293 KO CD47, OX ABCB1)”, and “Binding (293 OX ABCB1)”) provide FACS mean fluorescence intensities of antibodies binding to the indicated cell lines compared with non-binding control antibodies: “−”=˜zero, “±”=0 to ˜0.5 Log shift, “+”=˜1 Log shift, “++”=1→2 Log shift (see FIG. 3A for examples of non-binding controls and binding antibodies).

The subject of the next assay is NALM6 ADR cells. The text has this:
Cells: NALM6 (ATCC) and NALM6 ADR (ATCC), B cell precursor lymphoblastic leukemia cell lines used in this study. NALM6 ADR is a multidrug resistant cell line derived from NALM6 cells.
Mice: Sixty-five 5-6-weeks-old female SCID-Beige mice (Charles River) were used in this study.
Inoculation-2×10^6 cells diluted in PBS:Matrigel (1:1) were subcutaneously injected using a 27G insulin syringe into fifty anesthetized 5-6-week-old female SCID-Beige mice under sterile conditions.
NALM6 ADR subcutaneous tumors: Mice were randomized into nine groups of five mice each—(i) Control isotype IgG1 15 mg/kg, (ii) Control isotype IgG1 15 mg/kg and 5 mg/kg of paclitaxel, (iii) Control isotype IgG1 15 mg/kg and 20 mg/kg of paclitaxel, (iv) BisP1.1 15 mg/kg, (v) BisP1.1 15 mg/kg and 5 mg/kg of paclitaxel, (vi) BisP1.1 15 mg/kg and 20 mg/kg of paclitaxel (vii) Valspodar 20 mg/kg (viii) Valspodar 20 mg/kg and 5 mg/kg of paclitaxel and (ix) Valspodar 20 mg/kg and […]. Antibody, Valspodar and paclitaxel were dosed intraperitoneally twice a week for four consecutive weeks. Antibody/valspodar were injected at least 4 hours prior to paclitaxel injection. Paclitaxel preparation: Since paclitaxel is poorly soluble, a master stock of 50 mg/ml was prepared in absolute ethanol:Kolliphor (1:1). Prior to injection the stock was diluted to recommended doses of 5 mg/kg or 20 mg/kg with PBS maintaining a ratio of (1:16).
Measurements: Tumor measurements were done thrice a week using a calibrated Vernier Caliper and tumor volume calculated as per the formula ½*L*S*S where L is the long axis and s is the short axis of the tumor. Body weights were recorded before treatment started and were continuously monitored throughout the study. Animal survival was evaluated from the first day of treatment until death. To avoid suffering, mice were euthanized when turning moribund according to the above-mentioned predefined criteria: rapid weight loss, loss of ability to ambulate, labored respiration, or inability to drink or feed.
Statistics: Tumor volume and body weights were compared between different experimental groups using exact one-way analysis of variance (ANOVA). Kaplan-Meier survival curves were compared between different treatment groups using the log-rank (Mantel-Cox) test. Statistical analyses were performed using Graph Pad Prism (GraphPad, San Diego, CA, USA) software. The level of significance was set at p<0.05 for all analyses.

The subject of a further assay is 293T naïve cells. As to the kind of experiment: FACS binding to cells co-expressing Pgp and CD47. Set-up: species or system human. Particulars: FIG. 4. The protocol: (§1) In FIG. 4A-4B, the binding of the bispecific antibody is shown by FACS analysis against a variety of cell lines. The first scan (left panel in FIG. 4A and FIG. 4B) illustrates binding of the antibody to cells co-expressing both targets, (Pgp and CD47). […] FIG. 4A-4B further show binding with titrated antibody concentrations of 600 nM, 200 nM, 66 nM, 7.4 nM and 2 nM, with the signal measured from isotype and no antibody control also provided. The respective antibody concentrations are indicated in the left panel of FIG. 4A and FIG. 4B, and the measured signal from these different concentrations are generally overlapping in the middle and right panels of FIGS. 4A and 4B. FIG. 4A and FIG. 4B represent results obtained from two different batches of antibody.
For orientation: In flow cytometry, cells or beads pass a laser one at a time.

Assay [3] relates to 293 KT14-KO and KPB1-KD cells. As to the kind of experiment: FACS binding to cells with only one target present. Set-up: species or system human. Particulars: CD47 knock-out or Pgp knock-down 293T cells, FIG. 4. The protocol:
as §1

Regarding “KBisP1.1: bispecific anti-MDR1/anti-CD47 antibody: 15D3 heavy chain, 5F9 (KT14) heavy chain, common MRK16 light chain, human IgG1”, the “binding to human erythrocytes” value in assay [1] is listed as “no significant binding”. In addition, the “chemo-sensitization of N6ADR tumor to paclitaxel” value in assay [2] (FIG. 21) was “dose-dependent”. The “efficacy against N6ADR cell tumors” value in assay [2] (with or without paclitaxel, FIG. 20) is listed as “more efficacious than the 15D3 antibody”. Further, the “sensitivity of naïve 293T cells to paclitaxel” value with naïve 293T cells (FIG. 5, 6, compared to chemo only) is “enhanced”. Moreover, in the assay with naïve 293T cells (antibody 25 nM, compared to vincristine alone, FIG. 7), the “in vitro killing of naïve 293T with vincristine” value was “enhanced in vitro killing”. Moreover, the “Killing: enhanced 293 naïve cell-killing (sensitization)” value in the assay on naïve 293T cells (paclitaxel titration, FIG. 8) is given as “++ (≥2 Log shift)”. The “tumor growth, agent alone” value in the assay with NALM6 ADR cells (15 mg/kg i.p. twice a week) was “strong inhibition of tumor growth”. Moreover, the “tumor growth in combination with paclitaxel” value with NALM6 ADR cells (BisP1.1 15 mg/kg or valspodar 20 mg/kg with paclitaxel 5 or 20 mg/kg) is listed as “significantly reduced tumor growth”. Also, the survival result in the assay on NALM6 ADR cells (valspodar with paclitaxel 20 mg/kg, BisP1.1 alone or plus paclitaxel, compared to control) is on record as “prolonged survival”. Further, the “FACS binding when both targets are co-expressed” value in the assay with 293T naïve cells was “specific binding”. In addition, the “FACS binding when only one of the targets is present” value in assay [3] was “does not show significant binding”; in assay [3] (listed as HC-15D3:HC-5F9:LC-MRK16) it was “significantly reduced binding”.
